These results are taken from patent US12564572B2, “Topical ocular delivery of cromakalim” (QLARIS BIO, INC., priority 2022, dated 2026).

For series [1], the system named is patients with primary open-angle glaucoma. The note with it: cited from earlier work.
The subject of the next series is KATP channels. The note with it: in the presence of ATP; cited from earlier work.
Another series relates to rabbit eyes. Conditions: 0.5% cromakalim in 0.02 M phosphate buffer; cited from earlier work.
The test system of another series is Dutch Belted rabbits. The series can be described thus: 28 day repeated dose toxicology and toxicokinetic study by ocular topical administration in Dutch Belted rabbits (Example 12). The note with it: rabbit, in vivo, topical or ocular; for Tmax: male. The method, then:
Plasma concentrations of levcromakalim were evaluated in DB rabbits after twice a day (BID) oculus uterque (OU, both eyes) topical ophthalmic (T.O.) administration of formulation 3d for 28 days at dose levels of 0, 0.012, 0.03, and 0.06 mg/eye/dose.
Plasma concentrations of levcromakalim were evaluated in DB rabbits after BID OU T.O. administration of three concentrations of formulation 3d at dose levels of 0, 0.012, 0.03, and 0.06 mg/eye/dose (0, 0.024, 0.06, and 0.12 mg/eye/day respectively or 0.030% [1.0 mM], 0.075% [2.5 mM], or 0.15% [5 mM] respectively) for 28 days. Plasma was collected from 3 animals/dose group at pre-dose, 0.5, 1, 2, 3, 4, 6, and 12 hours post-first dose on Days 1 and 28.

One may read the Tmax as the time from dosing to the highest level.

Molecules are shown by their SMILES.

In the case of `CC1(C)Oc2ccc(C#N)cc2[C@@H](N2CCCC2=O)[C@@H]1OP(=O)(O)O` [QLS-101], the “Hyperemia (eye redness)” value in series [1] (in vivo) is reported as “no evidence of hyperemia”. Moreover, the Efficacy result in series [1] (patients with primary open-angle glaucoma) is reported as “positive efficacy signal”.

Take `CC1(C)Oc2ccc(C#N)cc2C(N2CCCC2=O)C1O` (centres unmarked) [cromakalim]: the “Increase of open-state probability (Popen) of single KATP channels” value in the series with KATP channels is “more than 9 fold”. Moreover, the “Effect on IOP after topical administration” value with rabbit eyes was “tended to increase IOP”.

In the case of `CC1(C)Oc2ccc(C#N)cc2[C@@H](N2CCCC2=O)[C@@H]1O` [levcromakalim], the AUCtlast with Dutch Belted rabbits (female, 0.03 mg) amounted to 3.99 ng·h/mL. Further, in the series with Dutch Belted rabbits (female, 0.06 mg), the t1/2 was found to be 1.77. Further, the Tmax with Dutch Belted rabbits (0.012 mg) worked out at 70.2 min; in the series on Dutch Belted rabbits (0.06 mg), 42 min.
